In one assay the target is T1, SIRT1 (Homo sapiens, UniProt Q96EB6).
T1 sequence (Q96EB6 1-747): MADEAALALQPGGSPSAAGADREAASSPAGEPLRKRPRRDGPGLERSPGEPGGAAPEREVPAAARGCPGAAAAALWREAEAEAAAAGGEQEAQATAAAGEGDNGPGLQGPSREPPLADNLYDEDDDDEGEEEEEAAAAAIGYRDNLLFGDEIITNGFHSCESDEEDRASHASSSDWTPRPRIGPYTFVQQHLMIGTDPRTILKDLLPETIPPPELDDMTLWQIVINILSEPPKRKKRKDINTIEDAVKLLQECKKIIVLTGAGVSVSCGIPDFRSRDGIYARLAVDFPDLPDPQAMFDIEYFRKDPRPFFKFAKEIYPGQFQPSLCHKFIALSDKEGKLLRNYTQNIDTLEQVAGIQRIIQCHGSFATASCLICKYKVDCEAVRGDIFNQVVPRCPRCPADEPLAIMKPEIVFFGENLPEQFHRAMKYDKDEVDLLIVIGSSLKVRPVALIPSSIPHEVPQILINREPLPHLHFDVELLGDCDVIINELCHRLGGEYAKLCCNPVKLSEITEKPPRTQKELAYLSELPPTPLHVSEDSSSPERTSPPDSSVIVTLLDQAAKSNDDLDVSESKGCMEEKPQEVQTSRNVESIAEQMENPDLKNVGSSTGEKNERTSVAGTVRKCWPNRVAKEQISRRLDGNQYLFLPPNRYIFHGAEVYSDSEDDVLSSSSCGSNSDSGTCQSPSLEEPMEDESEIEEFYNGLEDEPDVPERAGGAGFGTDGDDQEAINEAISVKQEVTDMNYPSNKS
Description: Fluorescence polarization or mass spectrometry based assay to identify modulators of SIRT1 activity (p53-based peptide deacetylation).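 Further: recombinant His-tagged human SIRT1 deacetylating p53-derived acetylated peptide, detected by fluorescence polarization after trypsin cleavage, signal inversely tracking deacetylase activity, compared against activity without test compound.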 Type of assay: biochemical. To be noted: activation of SIRT1, Table 4; read-out: ED50 (the source's name).

A further assay addresses T2, human SIRT3 (Homo sapiens, UniProt Q9NTG7).
T2 construct: corresponded to amino acid residues 102-399 of human SIRT3 with an N-terminal His-tag; His-tag (N); made in house; host or cells: E. coli
T2 sequence (Q9NTG7 102-399): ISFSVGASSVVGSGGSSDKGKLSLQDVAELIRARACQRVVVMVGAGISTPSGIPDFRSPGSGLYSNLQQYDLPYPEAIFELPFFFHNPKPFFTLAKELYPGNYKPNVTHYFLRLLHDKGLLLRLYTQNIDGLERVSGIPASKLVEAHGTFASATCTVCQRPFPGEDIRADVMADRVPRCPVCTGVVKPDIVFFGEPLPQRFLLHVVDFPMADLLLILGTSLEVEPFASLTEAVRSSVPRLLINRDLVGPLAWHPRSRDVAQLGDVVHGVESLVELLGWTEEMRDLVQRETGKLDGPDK
Description: Fluorescence polarization assay to identify modulators of SIRT3 activity (Histone H4-based peptide deacetylation). In kind it is biochemical. To be noted: activation of SIRT3, Table 6; read-out: ED50 (the source's name). The source says:
A fluorescence polarization assay was used to identify modulators of SIRT3 activity. The same assay may be used to identify modulators of any sirtuin protein. The assay utilizes a peptide substrate based on a fragment of Histone H4, a known sirtuin deacetylation target. The substrate contains a peptide having 14 amino acid residues as follows: Biotin-GASSHSK(Ac)VLK(MR121) (SEQ ID NO: 3) wherein K(Ac) is an acetylated lysine residue. The peptide is labeled with the fluorophore MR121 (excitation 635 nm/emission 680 nm) at the C-terminus and biotin at the N-terminus.
The peptide substrate is exposed to a sirtuin protein in the presence of NAD^+ to allow deacetylation of the substrate and render it sensitive to cleavage by trypsin. […] The fluorescence polarization signal observed for the full length peptide substrate bound to streptavidin is higher than the fluorescence polarization signal observed for the released MR121 C-terminal fragment. Therefore, the fluorescence polarization obtained is inversely proportional to the level of deacetylation (e.g., the signal is inversely proportional to the activity of the sirtuin protein). Results are read on a microplate fluorescence polarization reader (Molecular Devices Spectramax MD) with appropriate excitation and emission filters. […]

Each structure is given as a SMILES string.

`O=C(Nc1ccccc1N1CCOCC1)c1cc(-c2ccco2)nc2ccccc12` [Compound 8]: the EC50 at SIRT1 and at human SIRT3 was under 50 µM each time.

These data come from patent publication US20090069301A1, “Acridine and Quinoline Derivatives as Sirtuin Modulators” (Sirtris Pharmaceuticals, Inc., priority 2005, published 2009).
